How the values were obtained:
conscious dogs = conditions: following a glucagon challenge; cited from earlier work
hepatocytes = conditions: cited from earlier work; for glucose output: glucagon stimulated
db/db and ob/ob mice = db/db and ob/ob mice following treatment; cited from earlier work
[1] = target: T1, Human recombinant liver glycogen phosphorylase a (hrl GPa) (Homo sapiens, UniProt P06737); experiment: glycogen phosphorylase multienzyme coupled assay (glucose-1-phosphate production from glycogen); format: biochemical; conditions: hrl GPa 20 nM, 6 hours at 30° C., 8 mM glucose
T1 sequence (P06737 1-847): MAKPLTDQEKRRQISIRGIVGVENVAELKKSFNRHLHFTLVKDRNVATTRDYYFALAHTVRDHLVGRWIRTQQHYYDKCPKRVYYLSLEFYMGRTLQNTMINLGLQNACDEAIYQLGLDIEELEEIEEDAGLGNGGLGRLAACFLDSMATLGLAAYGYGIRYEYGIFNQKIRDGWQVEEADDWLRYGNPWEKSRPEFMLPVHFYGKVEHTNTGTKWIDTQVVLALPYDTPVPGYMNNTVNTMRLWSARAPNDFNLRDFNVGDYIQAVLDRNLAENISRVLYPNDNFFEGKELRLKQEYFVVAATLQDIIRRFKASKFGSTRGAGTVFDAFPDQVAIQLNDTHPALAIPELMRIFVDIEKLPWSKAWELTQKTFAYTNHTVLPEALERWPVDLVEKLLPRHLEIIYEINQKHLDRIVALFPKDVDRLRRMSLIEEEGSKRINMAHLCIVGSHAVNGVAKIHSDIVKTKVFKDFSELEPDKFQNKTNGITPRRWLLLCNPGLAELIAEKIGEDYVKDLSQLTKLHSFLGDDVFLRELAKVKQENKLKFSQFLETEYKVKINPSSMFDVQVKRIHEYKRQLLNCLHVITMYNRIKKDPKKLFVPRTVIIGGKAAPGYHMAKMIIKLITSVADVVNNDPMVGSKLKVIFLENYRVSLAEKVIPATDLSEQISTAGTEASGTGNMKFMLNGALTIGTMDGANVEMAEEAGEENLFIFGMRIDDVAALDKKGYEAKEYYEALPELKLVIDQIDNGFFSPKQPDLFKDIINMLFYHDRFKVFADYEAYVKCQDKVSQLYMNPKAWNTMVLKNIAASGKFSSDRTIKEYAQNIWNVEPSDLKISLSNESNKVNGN
Description: The activity of the compounds is determined by measuring the inhibitory effect of the compounds on glycogen degradation, the production of glucose-1-phosphate from glycogen is monitored by the multienzyme coupled assay, as described in EP 0 846 464 A2, general method of Pesce et al (Pesce, M A, Bodourian, S H, Harris, R C, and Nicholson, J F (1977) Clinical Chemistry 23, […]). The reactions were in 384 well microplate format in a volume of 50 μl. The change in fluorescence due to the conversion of the co-factor NAD to NADH is measured at 340 nm excitation, 465 nm emission in a Tecan Ultra Multifunctional Microplate Reader. The reaction is in 50 mM HEPES, 3.5 mM KH2PO4, 2.5 mM MgCl2, 2.5 mM ethylene glycol-bis(b-aminoethyl ether) N,N,N′N′-tetraacetic acid, 100 mM KCl, 8 mM D-(+)-glucose pH7.2, containing 0.5 mM dithiothreitol, the assay buffer solution. Human recombinant liver glycogen phosphorylase a (hrl GPa) 20 nM is pre-incubated in assay buffer solution with 6.25 mM NAD, 1.25 mg type III glycogen at 1.25 mg ml^−1 the reagent buffer, for 30 minutes. […] The non-inhibited activity of GPa is measured in the presence of 10 μl 15% DMSO in assay buffer solution and maximum inhibition measured in the presence of 5 mgs ml^−1 N-ethylmaleimide. […] Relative Fluoresence Units (RFUs) are measured at 340 nm excitation, 465 nm emission. […]
Activity is calculated as follows:—

IC50 [1] [nM]	SMILES	glucagon stimulated glycogenolysis (hepatocytes)	glucose output (hepatocytes)	plasma glucose concentration (db/db and ob/ob mice)	also measured
	CCN1C(C)=C(C(=O)OC(C)C)C(c2ccccc2Cl)C2=C1COC2=O (stereo not shown) [Bay R 3401]				arterial plasma glucose (conscious dogs): reduced significantly; hepatic glucose output (conscious dogs): reduced significantly
	CN(C)C(=O)[C@H](O)[C@H](Cc1ccccc1)NC(=O)c1cc2cc(Cl)ccc2[nH]1 [CP91149]	reduce	reduce	reduced, in a dose related manner	
	O=C(N[C@@H](Cc1ccc(F)cc1)C(=O)N1CCC(O)CC1)c1cc2cc(Cl)ccc2[nH]1 [CP320626]	reduce	reduce	reduced, in a dose related manner	
1670	O=C(O)COC[C@@H]1c2ccccc2C[C@H]1NC(=O)c1cc2cc(F)ccc2[nH]1 [Example 2, [((1R,2R)-2-{[(5-Fluoro-1H-indol-2-yl)carbonyl]amino}-2,3-dihydro-1H-inden-1-yl)methoxy]acetic acid]				
161	O=C(O)C[C@@H]1c2ccccc2C[C@H]1NC(=O)c1cc2cc(F)ccc2[nH]1 [Example 5, ((1R,2R)-2-{[(5-Fluoro-1H-indol-2-yl)carbonyl]amino}-2,3-dihydro-1H-inden-1-yl)acetic acid]				

From US20090124682A1, “Indan-Amide Derivatives with Glycogen Phosphorylase Inhibitory Activity” (priority 2005, published 2009)
